Literature values as cited in patent publication US20230320989A1, “SUSTAINED-RELEASE PHARMACEUTICAL FORMULATION OF FUSED TRICYCLIC ?-AMINO ACID DERIVATIVE AND PREPARATION METHOD THEREFOR” (SICHUAN HAISCO PHARMACEUTICAL CO., LTD., priority 2020, published 2023).

Conditions: patients with diabetic peripheral neuropathy

Question: With `NCC1(CC(=O)O)CCCCC1` [gabapentin] as the molecule, how does the “proportion of patients whose pain is relieved to a great extent” value read?
Answer: about 60%
